In experiment [1] the target is T1, HDAC10 (Homo sapiens, UniProt Q969S8).
T1 sequence (Q969S8 1-669): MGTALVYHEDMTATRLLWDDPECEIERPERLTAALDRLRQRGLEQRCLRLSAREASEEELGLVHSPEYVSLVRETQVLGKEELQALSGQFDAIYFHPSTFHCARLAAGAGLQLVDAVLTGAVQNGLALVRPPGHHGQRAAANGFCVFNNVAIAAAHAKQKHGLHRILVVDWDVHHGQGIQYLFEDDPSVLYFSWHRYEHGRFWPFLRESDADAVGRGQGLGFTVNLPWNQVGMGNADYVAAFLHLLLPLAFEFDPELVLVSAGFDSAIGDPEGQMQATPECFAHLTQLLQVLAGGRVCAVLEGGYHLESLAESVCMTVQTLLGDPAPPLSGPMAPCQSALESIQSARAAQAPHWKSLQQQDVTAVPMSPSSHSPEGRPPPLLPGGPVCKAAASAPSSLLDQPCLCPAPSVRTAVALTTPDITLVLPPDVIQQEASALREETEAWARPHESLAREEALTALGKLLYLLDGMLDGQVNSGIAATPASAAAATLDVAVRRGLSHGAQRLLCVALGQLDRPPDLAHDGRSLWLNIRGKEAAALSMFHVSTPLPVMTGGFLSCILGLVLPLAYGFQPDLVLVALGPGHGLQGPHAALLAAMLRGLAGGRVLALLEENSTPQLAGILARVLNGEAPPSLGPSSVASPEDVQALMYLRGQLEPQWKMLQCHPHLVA
As to conditions: cited from earlier work.

The target of experiment [2] is HDAC3 (Homo sapiens, UniProt O15379). Particulars: cited from earlier work.
Chain of HDAC3 (O15379 whole entry, canonical isoform): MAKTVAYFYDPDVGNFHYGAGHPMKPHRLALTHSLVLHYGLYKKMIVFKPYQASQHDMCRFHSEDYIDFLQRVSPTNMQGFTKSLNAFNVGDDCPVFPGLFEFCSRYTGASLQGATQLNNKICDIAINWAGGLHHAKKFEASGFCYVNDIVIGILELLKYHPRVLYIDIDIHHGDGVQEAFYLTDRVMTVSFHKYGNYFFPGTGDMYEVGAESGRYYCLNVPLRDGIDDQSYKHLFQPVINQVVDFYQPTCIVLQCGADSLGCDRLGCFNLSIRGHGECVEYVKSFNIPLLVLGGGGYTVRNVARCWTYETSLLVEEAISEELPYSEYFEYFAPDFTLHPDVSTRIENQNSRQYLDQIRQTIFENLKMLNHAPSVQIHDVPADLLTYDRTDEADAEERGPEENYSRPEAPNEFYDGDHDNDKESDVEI
Chain of HDAC3 (Q9Y618 395-489 partner limits assumed): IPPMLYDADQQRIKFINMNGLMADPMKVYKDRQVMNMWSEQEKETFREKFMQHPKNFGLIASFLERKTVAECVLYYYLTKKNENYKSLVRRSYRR
In experiment [3] the test system is HDAC isoforms. Kind of experiment: HDAC inhibition profiled over several HDAC isoforms (experimental). As to conditions: range of pIC50 over the profiled HDAC isoforms. It is filed as biochemical, human.
The target in experiment [4] is HDAC4 (Homo sapiens, UniProt P56524). As to conditions: cited from earlier work.
Chain of HDAC4 (P56524 whole entry): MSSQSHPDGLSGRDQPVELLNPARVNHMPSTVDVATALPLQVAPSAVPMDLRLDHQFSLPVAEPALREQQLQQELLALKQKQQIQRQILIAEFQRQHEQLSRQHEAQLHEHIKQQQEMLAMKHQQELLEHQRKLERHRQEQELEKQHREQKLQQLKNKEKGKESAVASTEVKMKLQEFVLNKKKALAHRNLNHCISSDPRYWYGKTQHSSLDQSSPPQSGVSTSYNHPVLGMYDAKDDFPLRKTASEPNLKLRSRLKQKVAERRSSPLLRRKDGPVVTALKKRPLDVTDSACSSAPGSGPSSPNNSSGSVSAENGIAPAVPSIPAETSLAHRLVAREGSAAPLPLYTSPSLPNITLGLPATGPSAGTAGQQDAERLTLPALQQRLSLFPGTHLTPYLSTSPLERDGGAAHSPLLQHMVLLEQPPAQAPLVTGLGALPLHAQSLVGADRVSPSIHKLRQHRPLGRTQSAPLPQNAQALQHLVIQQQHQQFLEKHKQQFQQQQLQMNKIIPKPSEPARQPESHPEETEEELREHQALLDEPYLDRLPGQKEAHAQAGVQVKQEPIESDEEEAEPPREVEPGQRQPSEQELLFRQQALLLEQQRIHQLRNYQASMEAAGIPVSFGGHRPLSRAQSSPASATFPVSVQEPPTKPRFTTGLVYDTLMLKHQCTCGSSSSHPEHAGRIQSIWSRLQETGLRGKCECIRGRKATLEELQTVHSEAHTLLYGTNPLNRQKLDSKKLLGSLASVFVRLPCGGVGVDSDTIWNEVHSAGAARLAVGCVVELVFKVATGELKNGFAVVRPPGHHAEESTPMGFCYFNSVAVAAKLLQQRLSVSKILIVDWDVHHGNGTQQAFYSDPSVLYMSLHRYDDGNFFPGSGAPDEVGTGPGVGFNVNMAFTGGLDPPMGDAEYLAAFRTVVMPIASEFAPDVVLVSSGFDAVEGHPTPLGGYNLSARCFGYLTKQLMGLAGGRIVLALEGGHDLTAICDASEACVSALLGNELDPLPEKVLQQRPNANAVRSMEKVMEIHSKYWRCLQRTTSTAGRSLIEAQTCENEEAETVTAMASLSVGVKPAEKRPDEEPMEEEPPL
For experiment [5], the target named is T2, HDAC8 (Homo sapiens, UniProt Q9BY41).
T2 sequence (Q9BY41 1-377): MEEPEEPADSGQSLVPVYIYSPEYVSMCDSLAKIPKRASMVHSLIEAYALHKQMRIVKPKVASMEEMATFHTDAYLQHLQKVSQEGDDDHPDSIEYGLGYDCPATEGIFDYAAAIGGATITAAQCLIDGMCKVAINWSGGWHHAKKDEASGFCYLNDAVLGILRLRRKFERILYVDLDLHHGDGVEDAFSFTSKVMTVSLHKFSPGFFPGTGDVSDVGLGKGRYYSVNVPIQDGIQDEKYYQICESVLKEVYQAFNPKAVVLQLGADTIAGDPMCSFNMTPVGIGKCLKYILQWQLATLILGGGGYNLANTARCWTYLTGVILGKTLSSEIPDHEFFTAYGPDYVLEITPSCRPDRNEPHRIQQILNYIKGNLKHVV
As to conditions: cited from earlier work.

Experiment [6] addresses T3, HDAC6 (Homo sapiens, UniProt Q9UBN7).
T3 sequence (Q9UBN7 1-1215): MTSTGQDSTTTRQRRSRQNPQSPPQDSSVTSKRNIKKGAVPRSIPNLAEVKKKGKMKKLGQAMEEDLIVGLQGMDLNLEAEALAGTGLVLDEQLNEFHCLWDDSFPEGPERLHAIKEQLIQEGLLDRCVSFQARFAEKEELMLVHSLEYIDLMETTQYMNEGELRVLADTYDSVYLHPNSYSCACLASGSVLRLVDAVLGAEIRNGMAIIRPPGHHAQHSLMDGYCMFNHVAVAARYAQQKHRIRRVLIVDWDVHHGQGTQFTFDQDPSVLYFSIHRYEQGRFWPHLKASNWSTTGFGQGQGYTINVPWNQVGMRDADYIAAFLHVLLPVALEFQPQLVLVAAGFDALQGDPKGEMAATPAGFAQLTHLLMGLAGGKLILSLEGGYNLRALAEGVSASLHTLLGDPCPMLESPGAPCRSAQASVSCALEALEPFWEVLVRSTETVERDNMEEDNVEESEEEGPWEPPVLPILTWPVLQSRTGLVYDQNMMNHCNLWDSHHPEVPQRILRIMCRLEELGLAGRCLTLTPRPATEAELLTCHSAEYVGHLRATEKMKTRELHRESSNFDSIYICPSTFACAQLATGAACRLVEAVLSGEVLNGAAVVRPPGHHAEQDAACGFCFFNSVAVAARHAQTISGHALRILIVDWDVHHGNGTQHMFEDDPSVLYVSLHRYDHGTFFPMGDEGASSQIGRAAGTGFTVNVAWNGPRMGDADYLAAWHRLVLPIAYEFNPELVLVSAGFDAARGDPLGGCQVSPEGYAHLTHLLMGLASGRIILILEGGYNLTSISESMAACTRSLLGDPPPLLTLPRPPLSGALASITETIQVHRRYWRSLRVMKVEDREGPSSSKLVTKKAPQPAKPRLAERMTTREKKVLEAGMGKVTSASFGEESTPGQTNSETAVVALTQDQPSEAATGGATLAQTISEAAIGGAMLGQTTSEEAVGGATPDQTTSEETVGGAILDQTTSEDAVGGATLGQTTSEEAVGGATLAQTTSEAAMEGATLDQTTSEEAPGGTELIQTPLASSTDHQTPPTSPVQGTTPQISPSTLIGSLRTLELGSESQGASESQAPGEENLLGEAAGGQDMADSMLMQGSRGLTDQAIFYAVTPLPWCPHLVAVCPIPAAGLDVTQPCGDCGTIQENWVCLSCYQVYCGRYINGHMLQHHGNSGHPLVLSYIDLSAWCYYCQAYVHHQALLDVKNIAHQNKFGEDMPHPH
As to conditions: cited from earlier work; for pIC50exp: HDAC6 experimental activity assigned; for pIC50: training set composition.

Experiment [7] deals with HDAC5 (Homo sapiens, UniProt Q9UQL6). Particulars: against HDAC5; cited from earlier work.
Chain of HDAC5 (Q9UQL6 whole entry): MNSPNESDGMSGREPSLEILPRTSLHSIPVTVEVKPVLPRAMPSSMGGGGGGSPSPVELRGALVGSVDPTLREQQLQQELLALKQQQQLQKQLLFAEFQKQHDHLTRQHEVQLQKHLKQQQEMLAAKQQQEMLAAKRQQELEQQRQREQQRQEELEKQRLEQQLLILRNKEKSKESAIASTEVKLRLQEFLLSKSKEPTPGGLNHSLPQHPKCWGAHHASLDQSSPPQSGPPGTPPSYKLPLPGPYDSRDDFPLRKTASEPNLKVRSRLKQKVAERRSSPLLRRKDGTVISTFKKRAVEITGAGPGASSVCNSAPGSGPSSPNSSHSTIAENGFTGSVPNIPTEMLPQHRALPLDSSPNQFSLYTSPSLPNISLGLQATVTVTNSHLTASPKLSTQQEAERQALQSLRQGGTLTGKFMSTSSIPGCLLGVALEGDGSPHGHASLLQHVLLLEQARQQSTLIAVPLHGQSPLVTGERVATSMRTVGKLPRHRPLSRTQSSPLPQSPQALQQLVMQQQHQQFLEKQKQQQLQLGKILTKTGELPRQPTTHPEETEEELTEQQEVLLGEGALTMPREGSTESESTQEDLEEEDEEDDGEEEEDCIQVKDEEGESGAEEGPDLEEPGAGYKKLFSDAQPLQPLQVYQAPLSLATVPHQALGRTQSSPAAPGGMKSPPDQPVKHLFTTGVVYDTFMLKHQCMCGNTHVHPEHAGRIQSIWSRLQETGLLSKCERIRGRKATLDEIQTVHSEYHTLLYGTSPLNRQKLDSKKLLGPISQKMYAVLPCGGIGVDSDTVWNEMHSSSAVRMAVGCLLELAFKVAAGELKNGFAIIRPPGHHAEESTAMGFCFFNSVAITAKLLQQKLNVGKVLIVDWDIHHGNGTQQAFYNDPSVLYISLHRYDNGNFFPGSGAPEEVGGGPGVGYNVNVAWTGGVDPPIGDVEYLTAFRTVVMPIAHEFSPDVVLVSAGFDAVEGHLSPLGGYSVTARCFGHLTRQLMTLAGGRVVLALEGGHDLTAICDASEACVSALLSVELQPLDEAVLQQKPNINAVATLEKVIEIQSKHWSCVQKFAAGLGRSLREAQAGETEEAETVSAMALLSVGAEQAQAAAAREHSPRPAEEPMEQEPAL
Where [8] appears, read: experimental value of modeled complex.
The mark [9] stands for this setting: training set, read-out: HDACs inhibitory activities IC50.

In general, pIC50 refers to the negative decadic logarithm of the IC50, by convention in mol/L. Broadly, the IC50 is the concentration that inhibits the measured activity by half.

Where two headings read alike, the source gives them in different places.

Regarding `CCCC(=O)O` [NABUT, Butyrate], the pIC50exp is recorded as 3.535 in experiment [1] (setting [8]), 4.648 in experiment [2] (setting [8]), 3 in experiment [6] (HDAC6-1 (histone catalytic domain)) and 3 in experiment [6] (HDAC6-2 (tubulin catalytic domain)). Further, the negative-log IC50 (pIC50) in experiment [1] (training set composition) is listed as 3.54; in experiment [2] (training set composition) it was 4.65; in experiment [4] (training set composition), 4.52; in experiment [5] (training set composition), 4.07; in experiment [6] (HDAC6-1), 3.00; in experiment [6] (HDAC6-2) it was 3.00. For the same molecule, the half-inhibitory concentration (IC50) in experiment [1] (setting [9]) was 292 µM; in experiment [2] (setting [9]) it was 22.5 µM; in experiment [4] (setting [9]), 30 µM; in experiment [5] (setting [9]), 85.6 µM; in experiment [6] (HDAC6, training set, read-out: HDACs inhibitory activities IC50), 1000 µM. In addition, in experiment [3], the “Bioactivity range (ΔpIC50) DpIC50” value amounted to 1.95. Moreover, the “pIC50 (lower end of training set activity range)” value in experiment [7] is given as 2.7.

The values above are taken from patent publication US20160378912A1, “STRUCTURE-BASED MODELING AND TARGET-SELECTIVITY PREDICTION” (EPIGENETX, LLC, priority 2013, published 2016).
